Common to all, as to assay type: in vivo
One assay deals with Thrips tabaci. Kind of assay: Thrips tabaci (onion thrips) leaf disc test. Particulars: foliar, 168 h, application rate 200 ppm, sunflower leaf discs, 7 days. Here is the method: Sunflower leaf discs were placed on agar in a 24-well microtiter plate and sprayed with test solutions at an application rate of 200 ppm. After drying, the leaf discs were infested with a thrips population of mixed ages. After an incubation period of 7 days, samples were checked for mortality.

In the next assay the test system is Spodoptera littoralis. Kind of assay: Spodoptera littoralis (Egyptian cotton leafworm) leaf disc test. Particulars: foliar, 72 h, application rate 200 ppm, cotton leaf discs, L1 larvae, mortality, feeding behavior, growth regulation 3 DAT. From the text: Spodoptera littoralis (Egyptian Cotton Leafworm): Cotton leaf discs were placed on agar in a 24-well microtiter plate and sprayed with test solutions at an application rate of 200 ppm. After drying, the leaf discs were infested with 5 L1 larvae. The samples were checked for mortality, feeding behavior, and growth regulation 3 days after treatment (DAT).

The next assay has as its system Tetranychus urticae. Briefly: Tetranychus urticae (two-spotted spider mite) leaf disc test. Particulars: foliar, 192 h, application rate 200 ppm, bean leaf discs, 8 days. From the text:
Bean leaf discs on agar in 24-well microtiter plates were sprayed with test solutions at an application rate of 200 ppm. After drying, the leaf discs are infested with mite populations of mixed ages. 8 days later, discs are checked for egg mortality, larval mortality, and adult mortality.

Assay [1] relates to Diabrotica balteata. Briefly: Diabrotica balteata (corn root worm) larval test on artificial diet. Particulars: 120 h, application rate 200 ppm (concentration in well 18 ppm), L2 larvae on artificial diet, 5 days. The protocol: Diabrotica balteata (Corn Root Worm): A 24-well microtiter plate (MTP) with artificial diet was treated with test solutions at an application rate of 200 ppm (concentration in well 18 ppm) by pipetting. After drying, the MTP's were infested with L2 larvae (6-10 per well). After an incubation period of 5 days, samples were checked for larval mortality and growth regulation.

In assay [2] the test system is Diabrotica balteata. The description is as above. Particulars: 120 h, read-out: Control/% Diabrotica balteata Corn rootworm; for pest or weed control at 3 ppm: application rate 3 ppm; for pest or weed control at 12 ppm: application rate 12 ppm; for pest or weed control at 50 ppm: application rate 50 ppm; for pest or weed control at 0.8 ppm: application rate 0.8 ppm.
Assay [3] deals with Plutella xylostella. Kind of assay: Plutella xylostella (diamond back moth) larval test on artificial diet. Particulars: 144 h, application rate 200 ppm (concentration in well 18 ppm), L2 larvae on artificial diet, 6 days. Here is the method:
24-well microtiter plate (MTP) with artificial diet was treated with test solutions at an application rate of 200 ppm (concentration in well 18 ppm) by pipetting. After drying, the MTP's were infested with L2 larvae (7-12 per well). After an incubation period of 6 days, samples were checked for larval mortality and growth regulation.

Assay [4] concerns Heliothis virescens. Briefly: Heliothis virescens (tobacco budworm) egg/larval test on artificial diet. Particulars: 96 h, application rate 200 ppm (concentration in well 18 ppm), eggs on artificial diet, 4 days. The protocol:
Eggs (0-24 h old) were placed in 24-well microtiter plate on artificial diet and treated with test solutions at an application rate of 200 ppm (concentration in well 18 ppm) by pipetting. After an incubation period of 4 days, samples were checked for egg mortality, larval mortality, and growth regulation.

The test system of another assay is Myzus persicae. Briefly: Myzus persicae (green peach aphid), systemic test. Particulars: 144 h, application rate 12.5 ppm, roots of pea seedlings in test solution, 6 days. From the text:
Myzus persicae (Green peach aphid), systemic test: Roots of pea seedlings, infested with an aphid population of mixed ages, are placed directly in the test solutions at an application rate of 12.5 ppm. 6 days after introduction, samples are checked for mortality and special effects on the plant. The following compounds gave at least 80% control of Myzus persicae: […]

Assay [5] deals with Heliothis virescens. Kind of assay: Heliothis virescens (tobacco budworm) egg/larval test on artificial diet. Particulars: 96 h; for pest or weed control at 0.8 ppm: application rate 0.8 ppm; for pest or weed control at 3 ppm: application rate 3 ppm; for pest or weed control at 0.2 ppm: application rate 0.2 ppm.
Assay [6] concerns Plutella xylostella. Kind of assay: Plutella xylostella (diamond back moth) larval test on artificial diet. Particulars: 144 h; for pest or weed control at 0.8 ppm: application rate 0.8 ppm; for pest or weed control at 3 ppm: application rate 3 ppm; for pest or weed control at 0.2 ppm: application rate 0.2 ppm.

As for `Cc1cc(C2=NOC(c3cc(Cl)cc(Cl)c3)(C(F)(F)F)C2)ccc1SCC(=O)NCC(F)(F)F` (stereo not drawn) [Compound A49, 2-{2-Methyl-4-[5-(3,5-Dichloro-phenyl)-5-trifluoromethyl-4,5-dihydro-isoxazol-3-yl]-phenylsulfanyl}-N-(2,2,2-trifluoro-ethyl)-acetamide], the pest or weed control at 200 ppm with Thrips tabaci, with Spodoptera littoralis, with Tetranychus urticae, in the assay with Diabrotica balteata [1], in the assay on Plutella xylostella [3] and in the assay on Heliothis virescens [4] was no less than 80% in each case. Besides, the pest or weed control at 3 ppm with Diabrotica balteata [2], with Heliothis virescens [5] and with Plutella xylostella [6] was 100% each time. For the same compound, in the assay on Diabrotica balteata [2], the pest or weed control at 12 ppm was 100%. In the assay on Myzus persicae, this compound returned a pest or weed control at 12.5 ppm of no less than 80%. Besides, the pest or weed control at 0.8 ppm with Heliothis virescens [5] and with Plutella xylostella [6] was 80% throughout.

`Cc1cc(C2=NOC(c3cc(Cl)cc(Cl)c3)(C(F)(F)F)C2)ccc1[S+](C)[O-]` (stereo not drawn): the pest or weed control at 3 ppm in the assay with Diabrotica balteata [2], with Heliothis virescens [5] and in the assay on Plutella xylostella [6] was 0% throughout. The pest or weed control at 12 ppm in the assay with Diabrotica balteata [2] was 0%. The pest or weed control at 0.8 ppm with Heliothis virescens [5] and with Plutella xylostella [6] was 0% throughout.

Turning to `O=C(CS(=O)(=O)c1ccc(C2=NOC(c3cc(Cl)cc(Cl)c3)(C(F)(F)F)C2)cc1)NCC(F)(F)F` (stereo not drawn) [Compound 1-030], in the assay on Diabrotica balteata [2], the pest or weed control at 12 ppm is 50% and the pest or weed control at 50 ppm came out at 100%. In the assay with Heliothis virescens [5], this compound gave a pest or weed control at 0.8 ppm of 0% and a pest or weed control at 3 ppm of 80%. In addition, in the assay on Plutella xylostella [6], the pest or weed control at 0.8 ppm amounted to 0% and the pest or weed control at 3 ppm worked out at 0%.

For `Cc1cc(C2=NOC(c3cc(Cl)cc(Cl)c3)(C(F)(F)F)C2)ccc1S(C)(=O)=O` (stereo not drawn) [Compound 1-021], in the assay on Diabrotica balteata [2], the pest or weed control at 12 ppm came to 0% and the pest or weed control at 50 ppm was 90%. In the assay with Heliothis virescens [5], the pest or weed control at 0.8 ppm worked out at 0% and the pest or weed control at 3 ppm came out at 0%. In the assay on Plutella xylostella [6], the pest or weed control at 0.8 ppm came to 0% and the pest or weed control at 3 ppm worked out at 0%.

As to `CSc1ccc(C2=NOC(c3cc(Cl)cc(Cl)c3)(C(F)(F)F)C2)cc1C` (stereo not drawn) [Compound 1-020], the pest or weed control at 12 ppm in the assay on Diabrotica balteata [2] is 20%. Besides, in the assay on Heliothis virescens [5], the pest or weed control at 0.8 ppm was found to be 0% and the pest or weed control at 3 ppm came out at 0%. Besides, in the assay on Plutella xylostella [6], the pest or weed control at 0.8 ppm came to 0% and the pest or weed control at 3 ppm was found to be 0%.

On to `O=C(C[S+]([O-])c1ccc(C2=NOC(c3cc(Cl)cc(Cl)c3)(C(F)(F)F)C2)cc1)NCC(F)(F)F` (stereo not drawn) [Compound 1-029], for which, in the assay on Diabrotica balteata [2], the pest or weed control at 12 ppm turned out to be 50% and the pest or weed control at 50 ppm worked out at 100%. In the assay on Heliothis virescens [5], the pest or weed control at 0.8 ppm stood at 0% and the pest or weed control at 3 ppm came to 80%. In addition, in the assay with Plutella xylostella [6], the pest or weed control at 0.8 ppm is 0% and the pest or weed control at 3 ppm is 80%.

Take `O=C(CSc1ccc(C2=NOC(c3cc(Cl)cc(Cl)c3)(C(F)(F)F)C2)cc1)NCC(F)(F)F` (stereo not drawn) [Compound 1-028]: in the assay on Diabrotica balteata [2], the pest or weed control at 0.8 ppm worked out at 0%, the pest or weed control at 3 ppm worked out at 20% and the pest or weed control at 12 ppm is 100%. In the assay with Heliothis virescens [5], this compound showed a pest or weed control at 0.2 ppm of 0%, a pest or weed control at 0.8 ppm of 0% and a pest or weed control at 3 ppm of 90%. In the assay on Plutella xylostella [6], this compound displayed a pest or weed control at 0.2 ppm of 0%, a pest or weed control at 0.8 ppm of 0% and a pest or weed control at 3 ppm of 50%.

Regarding `O=C(CS(=O)(=O)c1ccc(C2=NO[C@@](c3cc(Cl)c(Cl)c(Cl)c3)(C(F)(F)F)C2)cc1Cl)NCC(F)(F)F` [Compound D3, 2-[2-chloro-4-[(5S)-5-(3,4,5-trichlorophenyl)-5-(trifluoromethyl)-4H-isoxazol-3-yl]phenyl]sulfonyl-N-(2,2,2-trifluoroethyl)acetamide], the pest or weed control at 200 ppm in the assay with Thrips tabaci, with Spodoptera littoralis, in the assay on Tetranychus urticae, in the assay with Diabrotica balteata [1], with Plutella xylostella [3] and in the assay with Heliothis virescens [4] was no less than 80% each time. In the assay on Myzus persicae, this compound came in with a pest or weed control at 12.5 ppm of no less than 80%.

On to `O=C(CS(=O)(=O)c1ccc(C2=NOC(c3cc(Cl)cc(Cl)c3)(C(F)(F)F)C2)cc1Br)NCC(F)(F)F` (stereo not drawn) [Compound A53, 2-{2-Bromo-4-[5-(3,5-dichloro-phenyl)-5-trifluoromethyl-4,5-dihydro-isoxazol-3-yl]-benzenesulfonyl}-N-(2,2,2-trifluoro-ethyl)-acetamide], for which the pest or weed control at 200 ppm with Thrips tabaci, in the assay with Spodoptera littoralis, with Tetranychus urticae, in the assay with Diabrotica balteata [1], with Plutella xylostella [3] and with Heliothis virescens [4] was no less than 80% throughout. In addition, in the assay on Myzus persicae, the pest or weed control at 12.5 ppm was no less than 80%.

Take `O=C(C[S+]([O-])c1ccc(C2=NO[C@@](c3cc(Cl)cc(Cl)c3)(C(F)(F)F)C2)cc1F)NCC(F)(F)F` (stereo partly drawn) [Compound C64, 2-[4-[(5S)-5-(3,5-dichlorophenyl)-5-(trifluoromethyl)-4H-isoxazol-3-yl]-2-fluoro-phenyl]sulfinyl-N-(2,2,2-trifluoroethyl)acetamide]: the pest or weed control at 200 ppm in the assay with Thrips tabaci, in the assay with Spodoptera littoralis, in the assay with Tetranychus urticae, with Diabrotica balteata [1], in the assay with Plutella xylostella [3] and in the assay on Heliothis virescens [4] was no less than 80% throughout. This compound also gave a pest or weed control at 12.5 ppm in the assay with Myzus persicae of no less than 80%.

Regarding `Cc1cc(C2=NO[C@@](c3cc(Cl)cc(Cl)c3)(C(F)(F)F)C2)ccc1SCC(=O)NCC(F)(F)F` [Compound C1, 2-{4-[(S)-5-(3,5-Dichloro-phenyl)-5-trifluoromethyl-4,5-dihydro-isoxazol-3-yl]-2-methyl-phenylsulfanyl}-N-(2,2,2-trifluoro-ethyl)-acetamide], the pest or weed control at 200 ppm in the assay on Thrips tabaci, in the assay with Tetranychus urticae, in the assay on Plutella xylostella [3] and in the assay with Heliothis virescens [4] was no less than 80% in each case. Moreover, the pest or weed control at 0.8 ppm with Diabrotica balteata [2] stood at 80%; with Heliothis virescens [5] it was 80%; with Plutella xylostella [6] it was 100%. The pest or weed control at 3 ppm with Diabrotica balteata [2], in the assay with Heliothis virescens [5] and with Plutella xylostella [6] was 100% in each case. In addition, the pest or weed control at 12 ppm in the assay on Diabrotica balteata [2] was determined as 100%. The compound further showed a pest or weed control at 12.5 ppm in the assay on Myzus persicae of no less than 80%. The pest or weed control at 0.2 ppm in the assay on Heliothis virescens [5] and with Plutella xylostella [6] was 80% in each case.

With `O=C(C[S+]([O-])c1ccc(C2=NCC(c3cc(Cl)cc(Cl)c3)(C(F)(F)F)C2)cc1Cl)NCC(F)(F)F` (stereo not drawn) [Compound B2, 2-{2-Chloro-4-[4-(3,5-dichloro-phenyl)-4-trifluoromethyl-4,5-dihydro-3H-pyrrol-2-yl]-benzenesulfinyl}-N-(2,2,2-trifluoro-ethyl)-acetamide], the pest or weed control at 200 ppm in the assay with Thrips tabaci, in the assay with Spodoptera littoralis, in the assay with Tetranychus urticae, in the assay on Diabrotica balteata [1], with Plutella xylostella [3] and in the assay on Heliothis virescens [4] was no less than 80% each time. The compound further yielded a pest or weed control at 12.5 ppm with Myzus persicae of no less than 80%.
